Patent US20250326771A1, “PIPERAZINE DERIVATIVES USEFUL IN HIV THERAPY” (VIIV HEALTHCARE COMPANY, priority 2022, published 2025)
Where two headings read alike, the source gives them in different places.

Legend:
[1] = test system: Jurkat HIV-luciferase clones; experiment: Jurkat latency reversal assay; type: cell-based; details: Homo sapiens, 48 h; Jurkat latency reversal assay potency; read-out: Jurkat pEC50 (converted)
Summary of the method: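 Latency reversal was scored as provirus-driven luciferase luminescence in pooled Jurkat HIV-luc clones after 48 h compound exposure at 37° C. EC50 and maximal activation over vehicle were fitted with a four-parameter logistic model.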

cIAP1-BIR3 = cIAP1-BIR3 (Homo sapiens (Human), UniProt Q13490); experiment: BIR binding assay (FRET competition), cIAP1 BIR3; details: for cIAP1 BIR3 vs BIR2 separation window: fold separation (FS) for cIAP1
Sequence of cIAP1-BIR3 (Q13490 253-363): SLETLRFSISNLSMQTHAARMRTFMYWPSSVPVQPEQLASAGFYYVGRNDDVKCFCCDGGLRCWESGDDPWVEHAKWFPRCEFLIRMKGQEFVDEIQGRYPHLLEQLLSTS
Summary of the method: (§1)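 Each domain is run separately at its own level: 50 nM cIAP1-BIR3, 100 nM XIAP-BIR3, 325 nM for cIAP1-BIR2 or cIAP2-BIR2. Probe is a 200 nM fluorescent SMAC peptide, and the value is IC50 from FRET competition.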

cIAP1-BIR2 = cIAP1-BIR2 (Homo sapiens (Human), UniProt Q13490); experiment: BIR binding assay (FRET competition), cIAP1 BIR2
Sequence of cIAP1-BIR2 (Q13490 173-257): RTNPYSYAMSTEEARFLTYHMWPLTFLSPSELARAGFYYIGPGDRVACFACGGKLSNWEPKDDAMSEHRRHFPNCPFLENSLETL
Summary of the method: as §1

cIAP2-BIR3 = cIAP2-BIR3 (Homo sapiens (Human), UniProt Q13489); experiment: BIR binding assay (FRET competition), cIAP2 BIR3; details: for cIAP2 BIR3 vs BIR2 separation window: fold separation (FS) for cIAP2
Sequence of cIAP2-BIR3 (Q13489 238-349): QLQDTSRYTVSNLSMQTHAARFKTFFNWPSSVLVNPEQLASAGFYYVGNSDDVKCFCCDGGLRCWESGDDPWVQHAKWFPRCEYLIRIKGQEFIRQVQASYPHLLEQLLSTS

cIAP2-BIR2 = cIAP2-BIR2 (Homo sapiens (Human), UniProt Q13489); experiment: BIR binding assay (FRET competition), cIAP2 BIR2
Sequence of cIAP2-BIR2 (Q13489 158-242): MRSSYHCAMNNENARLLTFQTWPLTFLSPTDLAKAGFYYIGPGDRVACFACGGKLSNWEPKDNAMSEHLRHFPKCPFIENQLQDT
Summary of the method: as §1

XIAP-BIR3 = XIAP-BIR3 (Homo sapiens (Human), UniProt P98170); experiment: BIR binding assay (FRET competition), XIAP BIR3; details: for XIAP BIR3 vs BIR2 separation window: fold separation (FS) for XIAP
Sequence of XIAP-BIR3 (P98170 241-356): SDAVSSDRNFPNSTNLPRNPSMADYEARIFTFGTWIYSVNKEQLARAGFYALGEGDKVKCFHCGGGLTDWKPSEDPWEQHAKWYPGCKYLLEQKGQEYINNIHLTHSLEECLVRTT
Summary of the method: as §1

XIAP-BIR2 = XIAP-BIR2 (Homo sapiens (Human), UniProt P98170); experiment: BIR binding assay (FRET competition), XIAP BIR2; details: read-out: XIAP BIR2 (pIC50) (converted)
Sequence of XIAP-BIR2 (P98170 124-240): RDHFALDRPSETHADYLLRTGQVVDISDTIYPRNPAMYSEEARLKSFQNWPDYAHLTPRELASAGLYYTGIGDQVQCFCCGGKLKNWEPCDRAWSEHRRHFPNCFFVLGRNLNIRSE
Summary of the method: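 Compounds in a 15-point, 3-fold series competed with an AlexaFluor647 SMAC peptide (AVPIAQKSE, 200 nM) for 200 nM His-tagged XIAP-BIR2 over 60 min in pH 7.4 HEPES/CHAPS/DTT buffer. Eu-W1024 (2 nM) was then added for 30 min. IC50 and pIC50 were derived from the 615 nm/665 nm emission ratio by variable-slope fit.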

Row | Compound | EC50 [1] [nM] | IC50 (cIAP1-BIR3) [nM] | cIAP1 BIR3 vs BIR2 separation window (cIAP1-BIR3) | IC50 (cIAP1-BIR2) [nM] | IC50 (cIAP2-BIR3) [nM] | cIAP2 BIR3 vs BIR2 separation window (cIAP2-BIR3) | IC50 (cIAP2-BIR2) [nM] | IC50 (XIAP-BIR3) [nM] | XIAP BIR3 vs BIR2 separation window (XIAP-BIR3) | IC50 (XIAP-BIR2; FRET competition) [nM] | IC50 (XIAP-BIR2; FRET competition binding) [nM]
1 | Cc1c(NC(=O)[C@@H]2CN(C[C@H]3CN[C@H](C)CN3CC(=O)N3CC(C)(C)c4[nH]c(=O)c(Cc5ccc(F)cc5)cc43)CCO2)cccc1NC(=O)[C@@H]1CN(C[C@H]2CN[C@H](C)CN2CC(=O)N2CC(C)(C)c3[nH]c(=O)c(Cc4ccc(F)cc4)cc32)CCO1 [Compound 141, (2S,2′S)-N,N′-(2-methyl-1,3-phenylene)bis(4-(((2R,5R)-1-(2-(6-(4-fluorobenzyl)-3,3-dimethyl-5-oxo-2,3,4,5-tetrahydro-1H-pyrrolo[3,2-b]pyridin-1-yl)-2-oxoethyl)-5-methylpiperazin-2-yl)methyl)morpholine-2-carboxamide)] | 12.6 to 63.1 | 7.94 to 15.8 | +++ (10,000>FS>1,000) | 1000 to 3160 | 7.94 to 15.8 | +++ (10,000>FS>1,000) | 1000 to 3160 | 15.8 to 31.6 | +++ (10,000>FS>1,000) | 10000 to 51300 | –
2 | C[C@@H]1CN(CC(=O)N2CC(C)(C)c3[nH]c(=O)c(Cc4ccc(F)cc4)cc32)[C@@H](CN2CCC(CNC(=O)c3ccc(C(=O)NCC4CCN(C[C@H]5CN[C@H](C)CN5CC(=O)N5CC(C)(C)c6[nH]c(=O)c(Cc7ccc(F)cc7)cc65)CC4)cc3)CC2)CN1 [Example 101, N^1,N^4-bis((1-(((2R,5R)-1-(2-(6-(4-fluorobenzyl)-3,3-dimethyl-5-oxo-2,3,4,5-tetrahydro-1H-pyrrolo[3,2-b]pyridin-1-yl)-2-oxoethyl)-5-methylpiperazin-2-yl)methyl)piperidin-4-yl)methyl)terephthalamide] | 63.1 to 316 | 1.38 to 7.94 | +++ (10,000>FS>1,000) | 3160 to 10000 | 1.38 to 7.94 | ++++ (FS>10,000) | 3160 to 10000 | 7.94 to 15.8 | ++++ (FS>10,000) | – | 10000 to 51300
3 | C[C@@H]1CN(CC(=O)N2CC(C)(C)c3[nH]c(=O)c(Cc4ccc(F)cc4)cc32)[C@@H](CN2CCO[C@H](C(=O)NCc3cccc(CNC(=O)[C@@H]4CN(C[C@H]5CN[C@H](C)CN5CC(=O)N5CC(C)(C)c6[nH]c(=O)c(Cc7ccc(F)cc7)cc65)CCO4)c3)C2)CN1 [Example 122, (2S,2'S)-N,N′-(1,3-phenylenebis(methylene))bis(4-(((2R,5R)-1-(2-(6-(4-fluorobenzyl)-3,3-dimethyl-5-oxo-2,3,4,5-tetrahydro-1H-pyrrolo[3,2-b]pyridin-1-yl)-2-oxoethyl)-5-methylpiperazin-2-yl)methyl)morpholine-2-carboxamide)] | 12.6 to 63.1 | 7.94 to 15.8 | ++ (1,000>FS>100) | 1000 to 3160 | 7.94 to 15.8 | +++ (10,000>FS>1,000) | 1000 to 3160 | 15.8 to 31.6 | ++++ (FS>10,000) | – | 10000 to 51300
4 | C[C@@H]1CN(CC(=O)N2CC(C)(C)c3[nH]c(=O)c(Oc4ccc(F)cc4)cc32)[C@@H](CN2CCO[C@H](C(=O)NCc3ccc(CNC(=O)[C@@H]4CN(C[C@H]5CN[C@H](C)CN5CC(=O)N5CC(C)(C)c6[nH]c(=O)c(Oc7ccc(F)cc7)cc65)CCO4)cc3)C2)CN1 [Compound 181, (2S,2′S)-N,N′-(1,4-phenylenebis(methylene)) bis(4-(((2R,5R)-1-(2-(6-(4-fluorophenoxy)-3,3-dimethyl-5-oxo-2,3,4,5-tetrahydro-1H-pyrrolo[3,2-b]pyridin-1-yl)-2-oxoethyl)-5-methylpiperazin-2-yl)methyl)morpholine-2-carboxamide)] | 63.1 to 316 | 1.38 to 7.94 | ++++ (FS>10,000) | 3160 to 10000 | 1.38 to 7.94 | ++++ (FS>10,000) | 3160 to 10000 | 1.38 to 7.94 | ++++ (FS>10,000) | 10000 to 51300 | –
5 | C[C@@H]1CN(CC(=O)N2CC(C)(C)c3[nH]c(=O)c(Cc4ccc(F)cc4)cc32)[C@@H](CN2CCC(CCN(C)C(=O)c3ccc(C(=O)N(C)CCC4CCN(C[C@H]5CN[C@H](C)CN5CC(=O)N5CC(C)(C)c6[nH]c(=O)c(Cc7ccc(F)cc7)cc65)CC4)cc3)CC2)CN1 [Example 104, N^1,N^4-bis(2-(1-(((2R,5R)-1-(2-(6-(4-fluorobenzyl)-3,3-dimethyl-5-oxo-2,3,4,5-tetrahydro-1H-pyrrolo[3,2-b]pyridin-1-yl)-2-oxoethyl)-5-methylpiperazin-2-yl)methyl)piperidin-4-yl)ethyl)-N^1,N^4-dimethylterephthalamide] | 63.1 to 316 | 1.38 to 7.94 | +++ (10,000>FS>1,000) | 1000 to 3160 | 1.38 to 7.94 | +++ (10,000>FS>1,000) | 1000 to 3160 | 1.38 to 7.94 | ++++ (FS>10,000) | – | 10000 to 51300
6 | C[C@@H]1CN(CC(=O)N2CC(C)(C)c3[nH]c(=O)c(Cc4ccc(F)cc4)cc32)[C@@H](CN2CCC(CC(=O)NCc3ccc(CNC(=O)CC4CCN(C[C@H]5CN[C@H](C)CN5CC(=O)N5CC(C)(C)c6[nH]c(=O)c(Cc7ccc(F)cc7)cc65)CC4)cc3)CC2)CN1 [Example 105, N,N′-(1,4-phenylenebis(methylene))bis(2-(1-(((2R,5R)-1-(2-(6-(4-fluorobenzyl)-3,3-dimethyl-5-oxo-2,3,4,5-tetrahydro-1H-pyrrolo[3,2-b]pyridin-1-yl)-2-oxoethyl)-5-methylpiperazin-2-yl)methyl)piperidin-4-yl)acetamide)] | 63.1 to 316 | 7.94 to 15.8 | +++ (10,000>FS>1,000) | 3160 to 10000 | 7.94 to 15.8 | +++ (10,000>FS>1,000) | 3160 to 10000 | 7.94 to 15.8 | ++++ (FS>10,000) | – | 10000 to 51300
7 | C[C@@H]1CN(CC(=O)N2CC(C)(C)c3[nH]c(=O)c(Cc4ccc(F)cc4)cc32)[C@@H](CN2CCO[C@H](COCc3cccc(COC[C@@H]4CN(C[C@H]5CN[C@H](C)CN5CC(=O)N5CC(C)(C)c6[nH]c(=O)c(Cc7ccc(F)cc7)cc65)CCO4)c3)C2)CN1 [Example 80, 1,1′-(2,2′-((3R,3′R,6R,6′R)-(((2S,2'S)-(((1,3-phenylenebis(methylene))bis(oxy))bis(methylene))bis(morpholine-2,4-diyl))bis(methylene))bis(3-methylpiperazine-6,1-diyl))bis(acetyl))bis(6-(4-fluorobenzyl)-3,3-dimethyl-1,2,3,4-tetrahydro-5H-pyrrolo[3,2-b]pyridin-5-one)] | 0.49 to 12.6 | 1.38 to 7.94 | +++ (10,000>FS>1,000) | 1000 to 3160 | 1.38 to 7.94 | +++ (10,000>FS>1,000) | 3160 to 10000 | 1.38 to 7.94 | ++++ (FS>10,000) | – | 10000 to 51300
8 | C[C@@H]1CN(CC(=O)N2CC(C)(C)c3[nH]c(=O)c(Cc4ccc(F)cc4)cc32)[C@@H](CN2CCC(COc3cccc(OCC4CCN(C[C@H]5CN[C@H](C)CN5CC(=O)N5CC(C)(C)c6[nH]c(=O)c(Cc7ccc(F)cc7)cc65)CC4)c3)CC2)CN1 [Example 107, 1,1′-(2,2′-((3R,3′R,6R,6′R)-((((1,3-phenylenebis(oxy))bis(methylene))bis(piperidine-4,1-diyl))bis(methylene))bis(3-methylpiperazine-6,1-diyl))bis(acetyl))bis(6-(4-fluorobenzyl)-3,3-dimethyl-1,2,3,4-tetrahydro-5H-pyrrolo[3,2-b]pyridin-5-one)] | 12.6 to 63.1 | 7.94 to 15.8 | +++ (10,000>FS>1,000) | 1000 to 3160 | 1.38 to 7.94 | ++++ (FS>10,000) | 10000 to 51300 | 7.94 to 15.8 | ++++ (FS>10,000) | – | 10000 to 51300
9 | C[C@@H]1CN(CC(=O)N2CC(C)(C)c3[nH]c(=O)c(Cc4ccc(F)cc4)cc32)[C@@H](CN2CCC[C@H](NC(=O)Cc3cccc(CC(=O)N[C@H]4CCCN(C[C@H]5CN[C@H](C)CN5CC(=O)N5CC(C)(C)c6[nH]c(=O)c(Cc7ccc(F)cc7)cc65)C4)c3)C2)CN1 [Example 41, 2,2′-(1,3-phenylene)bis(N-((S)-1-(((2R,5R)-1-(2-(6-(4-fluorobenzyl)-3,3-dimethyl-5-oxo-2,3,4,5-tetrahydro-1H-pyrrolo[3,2-b]pyridin-1-yl)-2-oxoethyl)-5-methylpiperazin-2-yl)methyl)piperidin-3-yl)acetamide)] | 316 to 3310 | 31.6 to 501 | +++ (10,000>FS>1,000) | 3160 to 10000 | 31.6 to 501 | +++ (10,000>FS>1,000) | 3160 to 10000 | 31.6 to 501 | +++ (10,000>FS>1,000) | – | 10000 to 51300
